We go through 23 compounds from ChEMBL document CHEMBL4052753, “Antileishmanial potential of fused 5-(pyrazin-2-yl)-4H-1,2,4-triazole-3-thiols: Synthesis, biological evaluations and computational studies” (Bioorg Med Chem Lett, 2017).

Data set [1] relates to Leishmania donovani. Nature of the data set: Antileishmanial activity against Leishmania donovani NHOM/IN/80/DD8 promastigote forms assessed as reduction in parasite growth after 72 hrs by MTT assay. Format: functional. The following applies: NHOM/IN/80/DD8, 72 h. Background: Tetrazolium dyes change colour on reduction, which living cells bring about.
Data set [2] in a line: Antioxidant activity assessed as DPPH free radical scavenging activity after 30 mins. The format is functional. (In general: DPPH is a stable violet radical that fades when it is reduced.)
Data set [3] has as its system Leishmania donovani. Nature of the data set: Antileishmanial activity against Leishmania donovani NHOM/IN/80/DD8 promastigote forms assessed as reduction in parasite growth up to 500 uM after 72 hrs by MTT assay. The format is functional.
Data set [4] relates to HeLa. Nature of the data set: Cytotoxicity against human HeLa cells at 500 ug/ml after 72 hrs by MTT assay. The format is cell-based.

Activity calls are given as the source filed them. The calls are words filed in the database; no cut-off is given here.

With `CCOc1ccc(/C=N/n2c(S)nnc2-c2cnccn2)cc1OC`, the IC50 (as a rule, the concentration that gives 50% inhibition) in data set [1] amounted to 190 µM; in data set [2], 58.8 µM.

On to `S=C(Nc1ccccc1)Nn1c(S)nnc1-c1cnccn1`, for which the IC50 in data set [2] came to 58.8 µM. Also, the outcome in data set [3] was inactive.

Regarding `Oc1ccc(/C=N/n2c(S)nnc2-c2cnccn2)cc1`, the figures for the IC50 in data set [1] and in data set [2] were 79 µM and 58.9 µM, respectively. Moreover, in data set [4], the Activity result was “Non-Toxic”.

In the case of `S=C(Nc1ccc(Cl)cc1Cl)Nn1c(S)nnc1-c1cnccn1`, the results for the IC50 in data set [1] and in data set [2] were 79 µM and 58.9 µM, respectively.

As for `Fc1ccc(/C=N/n2c(S)nnc2-c2cnccn2)cc1`, the IC50 worked out at 382 µM in data set [1] and 58.8 µM in data set [2].

With `Oc1ccc(/C=N/n2c(S)nnc2-c2cnccn2)c(O)c1`, the values for the IC50 in data set [1] and in data set [2] were 106 µM and 75.9 µM, respectively.

As to `Sc1nnc(-c2cnccn2)n1/N=C/c1ccc(Cl)cc1`, the IC50 was 198 µM in data set [1] and 39.8 µM in data set [2].

Take `O=C1O[C@H]([C@@H](O)CO)C(O)=C1O` [ASCORBIC ACID]: in data set [2], the IC50 came to 14 µM.

For `Fc1cccc(NC(=S)Nn2c(S)nnc2-c2cnccn2)c1`, the IC50 was found to be 287 µM in data set [1] and 14 µM in data set [2].

Consider `N#Cc1ccc(/C=N/n2c(S)nnc2-c2cnccn2)cc1`, for which the IC50 was found to be 99 µM in data set [1] and 47.8 µM in data set [2].

For `Oc1ccccc1/C=N/n1c(S)nnc1-c1cnccn1`, the IC50 in data set [1] is 102 µM; in data set [2], 75.9 µM.

Regarding `S=C(Nc1ccc(Cl)c(Cl)c1)Nn1c(S)nnc1-c1cnccn1`, the figures for the IC50 in data set [1] and in data set [2] were 229 µM and 81.2 µM, respectively.

Turning to `Sc1nnc(-c2cnccn2)n1/N=C/c1ccc(Cl)cc1Cl`, the IC50 was found to be 241 µM in data set [1] and 81.2 µM in data set [2].

As for `CCc1ccc(/C=N/n2c(S)nnc2-c2cnccn2)cc1`, the IC50 in data set [1] worked out at 201 µM; in data set [2], 47.7 µM.

As for `Oc1ccc2ccccc2c1/C=N/n1c(S)nnc1-c1cnccn1`, the IC50 in data set [1] is 178 µM; in data set [2] it was 69.2 µM.

In the case of `Fc1ccc(NC(=S)Nn2c(S)nnc2-c2cnccn2)cc1`, the IC50 in data set [1] was found to be 322 µM; in data set [2], 69.2 µM.

In the case of `O=[N+]([O-])c1cccc(/C=N/n2c(S)nnc2-c2cnccn2)c1`, the values for the IC50 in data set [1] and in data set [2] were 347 µM and 72.4 µM, respectively.

For the compound `CN(C)c1ccc(/C=N/n2c(S)nnc2-c2cnccn2)cc1`, the figures for the IC50 in data set [1] and in data set [2] were 113 µM and 14 µM, respectively.

Take `S=C(Nc1ccc2ccccc2c1)Nn1c(S)nnc1-c1cnccn1`: the IC50 in data set [1] turned out to be 336 µM; in data set [2], 75.9 µM.

On to `FC(F)(F)c1ccc(NC(=S)Nn2c(S)nnc2-c2cnccn2)cc1`, for which the values for the IC50 in data set [1] and in data set [2] were 289 µM and 58.8 µM, respectively.

For the compound `Fc1ccc(NC(=S)Nn2c(S)nnc2-c2cnccn2)c(F)c1`, the IC50 in data set [1] was determined as 176 µM; in data set [2], 58.9 µM.

As for `S=C(Nc1ccc(Cl)cc1)Nn1c(S)nnc1-c1cnccn1`, the half-inhibitory concentration (IC50) in data set [2] was determined as 75.9 µM. In addition, the outcome in data set [3] was inactive.

Turning to `Sc1nnc(-c2cnccn2)n1/N=C/c1ccccc1`, the results for the IC50 in data set [1] and in data set [2] were 95.2 µM and 52.4 µM, respectively.
